# Reference: patent US20020137929A1, “1 - (3-heterocyclylphenyl) isothiourea, -isourea, -guanidine and -amidine herbicidal agents” (Intellectual Property Department, BASF Aktiengesellschaft, priority 1998, published 2002)
# What was measured:
# AMBEL (Ragweed, Common) [1] = assay: Postemergence herbicidal evaluation; assay type: in vivo, Ambrosia artemisifolia; conditions: postemergence
# Procedure, shortened: (§1)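 Scores (0–9) reflect plant stand, vigor, malformation, size, chlorosis and general appearance relative to control, read 4 to 5 weeks after treatment and averaged where tests were repeated. Application: about 0.0156–0.500 kg/ha sprayed at 40 psi onto two-week seedlings.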
# [2] = system: GLXMAW (Soybean, Williams); assay: Preemergence herbicidal evaluation; assay type: in vivo, Glycine max, (L.) Merr. cv Williams; conditions: rated 4-5 weeks after treatment
# Procedure, shortened: (§2)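 Preemergence soil application of compound, sprayed in aqueous acetone at rates equivalent to about 0.0156 to 0.500 kg per hectare onto freshly sown cups. Plant response was judged by eye on a 0-9 scale four to five weeks later.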
# MOOVA (Monochoria) = assay: Preemergence weed control under flooded paddy conditions; assay type: in vivo, Monochoria vaginalis; conditions: rated 3-4 weeks after treatment
# Procedure, shortened: (§3)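 Flooded-pot preemergence screen with silt loam and seeds in the upper 0.5 cm. Dose about 0.0313 to 0.500 kg/ha, delivered into flood water; visual 0-9 score after 3 to 4 weeks.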
# [3] = system: TRZAWR (Wheat, Winter, cv Riband); assay: Postemergence herbicidal evaluation; assay type: in vivo, Triticum aestivum; conditions: postemergence
# Procedure, shortened: as §1
# CASOB (Sicklepod) [4] = assay: Postemergence herbicidal evaluation; assay type: in vivo, Cassia obtusifolia; conditions: postemergence
# Procedure, shortened: as §1
# [5] = system: SAGPY (Arrowhead (Pygmaea)); assay: Preemergence weed control under flooded paddy conditions; assay type: in vivo, Sagittaria pygmaea; conditions: rated 3-4 weeks after treatment
# Procedure, shortened: as §3
# [6] = system: CHEAL (Lambsquarters, Common); assay: Postemergence herbicidal evaluation; assay type: in vivo, Chenopodium album; conditions: postemergence
# Procedure, shortened: as §1
# ECHCG (Barnyardgrass) = assay: Postemergence herbicidal evaluation; assay type: in vivo, Echinochloa crus-galli; conditions: postemergence
# Procedure, shortened: as §1
# CASOB (Sicklepod) [7] = assay: Preemergence herbicidal evaluation; assay type: in vivo, Cassia obtusifolia; conditions: rated 4-5 weeks after treatment
# Procedure, shortened: as §2
# [8] = system: GLXMAW (Soybean, Williams); assay: Postemergence herbicidal evaluation; assay type: in vivo, Glycine max, (L.) Merr. cv Williams; conditions: postemergence
# Procedure, shortened: as §1
# AMBEL (Ragweed, Common) [9] = assay: Preemergence herbicidal evaluation; assay type: in vivo, Ambrosia artemisifolia; conditions: rated 4-5 weeks after treatment
# Procedure, shortened: as §2
# ABUTH (Velvetleaf) = assay: Preemergence herbicidal evaluation; assay type: in vivo, Abutilon theophrasti; conditions: rated 4-5 weeks after treatment
# Procedure, shortened: as §2
# [10] = system: CHEAL (Lambsquarters, Common); assay: Preemergence herbicidal evaluation; assay type: in vivo, Chenopodium album; conditions: rated 4-5 weeks after treatment
# Procedure, shortened: as §2
# ORYSAT (Rice, Tebonnet) = assay: Preemergence herbicidal evaluation; assay type: in vivo, Oryza sativa, (L.) Tebonnet; conditions: rated 4-5 weeks after treatment
# Procedure, shortened: as §2
# [11] = system: IPOHE (Morningglory, Ivyleaf); assay: Postemergence herbicidal evaluation; assay type: in vivo, Ipomoea hederacea; conditions: postemergence
# Procedure, shortened: as §1
# [12] = system: IPOHE (Morningglory, Ivyleaf); assay: Preemergence herbicidal evaluation; assay type: in vivo, Ipomoea hederacea; conditions: rated 4-5 weeks after treatment
# Procedure, shortened: as §2
smiles,measurement,setting,value
"CCOC(=O)CN1C(=O)C(=C2CCCC2)SC1=Nc1cc(-n2c(=O)cc(C(F)(F)F)n(C)c2=O)c(F)cc1Cl [Compound 18, Ethyl 2-{{2-chloro-5-[3,6-dihydro-3-methyl-2,6-dioxo-4-(trifluoromethyl)-1(2H)-pyrimidinyl]-4-fluorophenyl}imino}-5-cyclopentylidene-4-oxo-3-thiazolidineacetate]",AMBEL herbicidal rating,"AMBEL (Ragweed, Common) [1]; rate 0.0158 kg/ha",4.0
same,AMBEL herbicidal rating,"AMBEL (Ragweed, Common) [1]; rate 0.0315 kg/ha",9.0
same,AMBEL herbicidal rating,"AMBEL (Ragweed, Common) [1]; rate 0.0630 kg/ha",7.0
same,GLXMAW preemergence herbicidal rating,[2]; rate 0.1250 kg/ha,0.0
same,GLXMAW preemergence herbicidal rating,[2]; rate 0.2500 kg/ha,3.0
same,Herbicidal rating MOOVA,MOOVA (Monochoria); 0.1160 kg/ha,9.0
same,Herbicidal rating MOOVA,MOOVA (Monochoria); 0.2310 kg/ha,9.0
same,Herbicidal rating MOOVA,MOOVA (Monochoria); 0.4630 kg/ha,9.0
same,TRZAWR herbicidal rating,[3]; rate 0.0158 kg/ha,2.5
same,TRZAWR herbicidal rating,[3]; rate 0.0315 kg/ha,3.0
same,TRZAWR herbicidal rating,[3]; rate 0.0630 kg/ha,3.0
same,CASOB herbicidal rating,CASOB (Sicklepod) [4]; rate 0.0158 kg/ha,0.0
same,CASOB herbicidal rating,CASOB (Sicklepod) [4]; rate 0.0315 kg/ha,1.0
same,CASOB herbicidal rating,CASOB (Sicklepod) [4]; rate 0.0630 kg/ha,1.0
same,Herbicidal rating SAGPY,[5]; 0.1160 kg/ha,0.0
same,Herbicidal rating SAGPY,[5]; 0.2310 kg/ha,0.0
same,Herbicidal rating SAGPY,[5]; 0.4630 kg/ha,6.0
same,CHEAL herbicidal rating,[6]; rate 0.0158 kg/ha,6.0
same,CHEAL herbicidal rating,[6]; rate 0.0315 kg/ha,9.0
same,CHEAL herbicidal rating,[6]; rate 0.0630 kg/ha,9.0
same,ECHCG herbicidal rating,ECHCG (Barnyardgrass); rate 0.0158 kg/ha,1.0
same,ECHCG herbicidal rating,ECHCG (Barnyardgrass); rate 0.0315 kg/ha,1.0
same,ECHCG herbicidal rating,ECHCG (Barnyardgrass); rate 0.0630 kg/ha,2.0
same,CASOB preemergence herbicidal rating,CASOB (Sicklepod) [7]; rate 0.1250 kg/ha,0.0
same,CASOB preemergence herbicidal rating,CASOB (Sicklepod) [7]; rate 0.2500 kg/ha,0.0
same,GLXMAW herbicidal rating,[8]; rate 0.0158 kg/ha,3.5
same,GLXMAW herbicidal rating,[8]; rate 0.0315 kg/ha,3.5
same,GLXMAW herbicidal rating,[8]; rate 0.0630 kg/ha,3.5
same,AMBEL preemergence herbicidal rating,"AMBEL (Ragweed, Common) [9]; rate 0.1250 kg/ha",1.0
same,AMBEL preemergence herbicidal rating,"AMBEL (Ragweed, Common) [9]; rate 0.2500 kg/ha",4.0
same,ABUTH preemergence herbicidal rating,ABUTH (Velvetleaf); rate 0.1250 kg/ha,2.0
same,ABUTH preemergence herbicidal rating,ABUTH (Velvetleaf); rate 0.2500 kg/ha,9.0
same,CHEAL preemergence herbicidal rating,[10]; rate 0.1250 kg/ha,8.0
same,CHEAL preemergence herbicidal rating,[10]; rate 0.2500 kg/ha,9.0
same,ORYSAT preemergence herbicidal rating,"ORYSAT (Rice, Tebonnet); rate 0.1250 kg/ha",0.0
same,ORYSAT preemergence herbicidal rating,"ORYSAT (Rice, Tebonnet); rate 0.2500 kg/ha",0.0
same,IPOHE herbicidal rating,[11]; rate 0.0158 kg/ha,2.0
same,IPOHE herbicidal rating,[11]; rate 0.0315 kg/ha,6.0
same,IPOHE herbicidal rating,[11]; rate 0.0630 kg/ha,9.0
same,IPOHE preemergence herbicidal rating,[12]; rate 0.1250 kg/ha,0.0
same,IPOHE preemergence herbicidal rating,[12]; rate 0.2500 kg/ha,1.0
"CCOC(=O)CN1C(=O)C(=C(C)C)S/C1=N/c1cc(-n2c(=O)cc(C(F)(F)F)n(C)c2=O)c(F)cc1Cl [Compound 20, Ethyl 2-{{2-chloro-5-[3,6-dihydro-3-methyl-2,6-dioxo-4-(trifluoromethyl)-1(2H)-pyrimidinyl]-4-fluorophenyl}imino}-5-isopropylidene-4-oxo-3-thiazolidineacetate]",AMBEL herbicidal rating,"AMBEL (Ragweed, Common) [1]; rate 0.0158 kg/ha",4.0
same,AMBEL herbicidal rating,"AMBEL (Ragweed, Common) [1]; rate 0.0315 kg/ha",5.0
same,AMBEL herbicidal rating,"AMBEL (Ragweed, Common) [1]; rate 0.0630 kg/ha",6.0
same,GLXMAW preemergence herbicidal rating,[2]; rate 0.0625 kg/ha,0.0
same,GLXMAW preemergence herbicidal rating,[2]; rate 0.1250 kg/ha,0.0
same,GLXMAW preemergence herbicidal rating,[2]; rate 0.2500 kg/ha,4.0
same,Herbicidal rating MOOVA,MOOVA (Monochoria); 0.1160 kg/ha,9.0
same,Herbicidal rating MOOVA,MOOVA (Monochoria); 0.2310 kg/ha,9.0
same,Herbicidal rating MOOVA,MOOVA (Monochoria); 0.4630 kg/ha,9.0
same,TRZAWR herbicidal rating,[3]; rate 0.0158 kg/ha,3.5
same,TRZAWR herbicidal rating,[3]; rate 0.0315 kg/ha,4.0
same,TRZAWR herbicidal rating,[3]; rate 0.0630 kg/ha,4.0
same,CASOB herbicidal rating,CASOB (Sicklepod) [4]; rate 0.0158 kg/ha,0.0
same,CASOB herbicidal rating,CASOB (Sicklepod) [4]; rate 0.0315 kg/ha,0.0
same,CASOB herbicidal rating,CASOB (Sicklepod) [4]; rate 0.0630 kg/ha,2.0
same,Herbicidal rating SAGPY,[5]; 0.1160 kg/ha,0.0
same,Herbicidal rating SAGPY,[5]; 0.2310 kg/ha,0.0
same,Herbicidal rating SAGPY,[5]; 0.4630 kg/ha,3.0
same,CHEAL herbicidal rating,[6]; rate 0.0158 kg/ha,4.0
same,CHEAL herbicidal rating,[6]; rate 0.0315 kg/ha,6.0
same,CHEAL herbicidal rating,[6]; rate 0.0630 kg/ha,7.0
same,ECHCG herbicidal rating,ECHCG (Barnyardgrass); rate 0.0158 kg/ha,1.0
same,ECHCG herbicidal rating,ECHCG (Barnyardgrass); rate 0.0315 kg/ha,1.0
same,ECHCG herbicidal rating,ECHCG (Barnyardgrass); rate 0.0630 kg/ha,2.0
same,CASOB preemergence herbicidal rating,CASOB (Sicklepod) [7]; rate 0.0625 kg/ha,0.0
same,CASOB preemergence herbicidal rating,CASOB (Sicklepod) [7]; rate 0.1250 kg/ha,0.0
same,CASOB preemergence herbicidal rating,CASOB (Sicklepod) [7]; rate 0.2500 kg/ha,9.0
same,GLXMAW herbicidal rating,[8]; rate 0.0158 kg/ha,3.5
same,GLXMAW herbicidal rating,[8]; rate 0.0315 kg/ha,4.0
same,GLXMAW herbicidal rating,[8]; rate 0.0630 kg/ha,5.5
same,AMBEL preemergence herbicidal rating,"AMBEL (Ragweed, Common) [9]; rate 0.0625 kg/ha",0.0
same,AMBEL preemergence herbicidal rating,"AMBEL (Ragweed, Common) [9]; rate 0.1250 kg/ha",0.0
same,AMBEL preemergence herbicidal rating,"AMBEL (Ragweed, Common) [9]; rate 0.2500 kg/ha",3.0
same,ABUTH preemergence herbicidal rating,ABUTH (Velvetleaf); rate 0.0625 kg/ha,0.0
same,ABUTH preemergence herbicidal rating,ABUTH (Velvetleaf); rate 0.1250 kg/ha,9.0
same,ABUTH preemergence herbicidal rating,ABUTH (Velvetleaf); rate 0.2500 kg/ha,9.0
same,CHEAL preemergence herbicidal rating,[10]; rate 0.0625 kg/ha,9.0
same,CHEAL preemergence herbicidal rating,[10]; rate 0.1250 kg/ha,9.0
same,CHEAL preemergence herbicidal rating,[10]; rate 0.2500 kg/ha,9.0
same,ORYSAT preemergence herbicidal rating,"ORYSAT (Rice, Tebonnet); rate 0.0625 kg/ha",0.0
same,ORYSAT preemergence herbicidal rating,"ORYSAT (Rice, Tebonnet); rate 0.1250 kg/ha",0.0
same,ORYSAT preemergence herbicidal rating,"ORYSAT (Rice, Tebonnet); rate 0.2500 kg/ha",0.0
same,IPOHE herbicidal rating,[11]; rate 0.0158 kg/ha,9.0
same,IPOHE herbicidal rating,[11]; rate 0.0315 kg/ha,3.0
same,IPOHE herbicidal rating,[11]; rate 0.0630 kg/ha,9.0
same,IPOHE preemergence herbicidal rating,[12]; rate 0.0625 kg/ha,0.0
same,IPOHE preemergence herbicidal rating,[12]; rate 0.1250 kg/ha,0.0
same,IPOHE preemergence herbicidal rating,[12]; rate 0.2500 kg/ha,2.0
